Numbers after ± are expanded uncertainties.
Conditions: Buoyancy - hydrostatic balance with magnetic suspension - one sinker

## FCF [difluoromethane]
215.35 K, 1103.8 kPa, Liquid
  mass density: 1230.26 ± 0.28 kg/m3
215.35 K, 1325.8 kPa, Liquid
  mass density: 1230.63 ± 0.28 kg/m3
215.36 K, 1538.7 kPa, Liquid
  mass density: 1230.95 ± 0.28 kg/m3
215.36 K, 1697.9 kPa, Liquid
  mass density: 1231.2 ± 0.28 kg/m3
215.37 K, 103.26 kPa, Liquid
  mass density: 1228.62 ± 0.28 kg/m3
215.37 K, 297.95 kPa, Liquid
  mass density: 1228.9 ± 0.28 kg/m3
215.37 K, 703.99 kPa, Liquid
  mass density: 1229.57 ± 0.28 kg/m3
215.39 K, 1295 kPa, Liquid
  mass density: 1230.49 ± 0.28 kg/m3
224.87 K, 174.37 kPa, Liquid
  mass density: 1202.55 ± 0.27 kg/m3
224.87 K, 584.91 kPa, Liquid
  mass density: 1203.31 ± 0.27 kg/m3
224.88 K, 1061.9 kPa, Liquid
  mass density: 1204.12 ± 0.28 kg/m3
224.89 K, 1060.1 kPa, Liquid
  mass density: 1204.1 ± 0.28 kg/m3
224.91 K, 1506.3 kPa, Liquid
  mass density: 1204.87 ± 0.28 kg/m3
234.46 K, 1590 kPa, Liquid
  mass density: 1178.28 ± 0.27 kg/m3
234.51 K, 797.4 kPa, Liquid
  mass density: 1176.49 ± 0.27 kg/m3
234.52 K, 405.74 kPa, Liquid
  mass density: 1175.67 ± 0.27 kg/m3
234.55 K, 274.67 kPa, Liquid
  mass density: 1175.3 ± 0.27 kg/m3
234.56 K, 1164.8 kPa, Liquid
  mass density: 1177.09 ± 0.27 kg/m3
235.12 K, 296.35 kPa, Liquid
  mass density: 1173.64 ± 0.27 kg/m3
235.12 K, 647.72 kPa, Liquid
  mass density: 1174.42 ± 0.27 kg/m3
235.12 K, 648.42 kPa, Liquid
  mass density: 1174.42 ± 0.27 kg/m3
235.12 K, 1119.6 kPa, Liquid
  mass density: 1175.37 ± 0.27 kg/m3
235.12 K, 1629.1 kPa, Liquid
  mass density: 1176.43 ± 0.27 kg/m3
235.13 K, 296.36 kPa, Liquid
  mass density: 1173.65 ± 0.27 kg/m3
235.13 K, 1583.2 kPa, Liquid
  mass density: 1176.31 ± 0.27 kg/m3
235.14 K, 1742.1 kPa, Liquid
  mass density: 1176.61 ± 0.27 kg/m3
244.28 K, 721.81 kPa, Liquid
  mass density: 1147.83 ± 0.26 kg/m3
244.28 K, 1218.8 kPa, Liquid
  mass density: 1148.97 ± 0.26 kg/m3
244.29 K, 432.84 kPa, Liquid
  mass density: 1147.12 ± 0.26 kg/m3
244.29 K, 1506.2 kPa, Liquid
  mass density: 1149.63 ± 0.26 kg/m3
244.3 K, 1507.8 kPa, Liquid
  mass density: 1149.6 ± 0.26 kg/m3
244.89 K, 745.03 kPa, Liquid
  mass density: 1145.98 ± 0.26 kg/m3
244.89 K, 1636.6 kPa, Liquid
  mass density: 1148.09 ± 0.26 kg/m3
244.9 K, 364.35 kPa, Liquid
  mass density: 1145.04 ± 0.26 kg/m3
244.9 K, 1266.5 kPa, Liquid
  mass density: 1147.19 ± 0.26 kg/m3
244.9 K, 1785 kPa, Liquid
  mass density: 1148.39 ± 0.26 kg/m3
244.91 K, 1786.1 kPa, Liquid
  mass density: 1148.39 ± 0.26 kg/m3
254.08 K, 382.25 kPa, Gas
  mass density: 10.3656 ± 0.018 kg/m3
254.09 K, 214.16 kPa, Gas
  mass density: 5.5491 ± 0.017 kg/m3
254.09 K, 313.9 kPa, Gas
  mass density: 8.3508 ± 0.018 kg/m3
254.1 K, 104.12 kPa, Gas
  mass density: 2.6275 ± 0.016 kg/m3
254.65 K, 795.59 kPa, Liquid
  mass density: 1116.29 ± 0.26 kg/m3
254.65 K, 1111.6 kPa, Liquid
  mass density: 1117.17 ± 0.26 kg/m3
254.65 K, 1794.7 kPa, Liquid
  mass density: 1119.02 ± 0.26 kg/m3
254.66 K, 487.53 kPa, Liquid
  mass density: 1115.4 ± 0.26 kg/m3
254.66 K, 1451 kPa, Liquid
  mass density: 1118.05 ± 0.26 kg/m3
254.66 K, 1795.2 kPa, Liquid
  mass density: 1119 ± 0.26 kg/m3
254.67 K, 1113.8 kPa, Liquid
  mass density: 1117.12 ± 0.26 kg/m3
254.67 K, 1449.1 kPa, Liquid
  mass density: 1118.02 ± 0.26 kg/m3
263.88 K, 107.72 kPa, Gas
  mass density: 2.6075 ± 0.015 kg/m3
263.88 K, 204.78 kPa, Gas
  mass density: 5.0609 ± 0.016 kg/m3
263.88 K, 306.27 kPa, Gas
  mass density: 7.74 ± 0.017 kg/m3
263.88 K, 401.96 kPa, Gas
  mass density: 10.3885 ± 0.018 kg/m3
263.88 K, 506.07 kPa, Gas
  mass density: 13.4247 ± 0.018 kg/m3
